Experimental data from patent US8022206B2 (OSI Pharmaceuticals, LLC, priority 2008, dated 2011).

Assays:
RON (human) = RON (human) (Homo sapiens, UniProt Q04912); test: RON (human) AlphaScreen kinase assay, Km of ATP; format: biochemical; conditions: AlphaScreen, Km of ATP; read-out: RON biochemical IC50
How it was run: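 Detection used PT66 AlphaScreen beads added in Tris pH 7.5/NaCl/EDTA/BSA buffer, read after 1 h incubation. Vehicle-only DMSO wells served as controls.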

MET (human) = MET (human) (Homo sapiens, UniProt P08581); test: MET (human) AlphaScreen kinase assay, Km of ATP; format: biochemical; conditions: AlphaScreen, Km of ATP; read-out: Met biochemical IC50
How it was run: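 Human MET at lot-optimised concentration in 50 mM Tris pH 7.4 buffer with 1 mM DTT, compound at 1% DMSO final; enzyme starts the reaction, 60 min at RT.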

Sequence of MET (human) (P08581 25-1390): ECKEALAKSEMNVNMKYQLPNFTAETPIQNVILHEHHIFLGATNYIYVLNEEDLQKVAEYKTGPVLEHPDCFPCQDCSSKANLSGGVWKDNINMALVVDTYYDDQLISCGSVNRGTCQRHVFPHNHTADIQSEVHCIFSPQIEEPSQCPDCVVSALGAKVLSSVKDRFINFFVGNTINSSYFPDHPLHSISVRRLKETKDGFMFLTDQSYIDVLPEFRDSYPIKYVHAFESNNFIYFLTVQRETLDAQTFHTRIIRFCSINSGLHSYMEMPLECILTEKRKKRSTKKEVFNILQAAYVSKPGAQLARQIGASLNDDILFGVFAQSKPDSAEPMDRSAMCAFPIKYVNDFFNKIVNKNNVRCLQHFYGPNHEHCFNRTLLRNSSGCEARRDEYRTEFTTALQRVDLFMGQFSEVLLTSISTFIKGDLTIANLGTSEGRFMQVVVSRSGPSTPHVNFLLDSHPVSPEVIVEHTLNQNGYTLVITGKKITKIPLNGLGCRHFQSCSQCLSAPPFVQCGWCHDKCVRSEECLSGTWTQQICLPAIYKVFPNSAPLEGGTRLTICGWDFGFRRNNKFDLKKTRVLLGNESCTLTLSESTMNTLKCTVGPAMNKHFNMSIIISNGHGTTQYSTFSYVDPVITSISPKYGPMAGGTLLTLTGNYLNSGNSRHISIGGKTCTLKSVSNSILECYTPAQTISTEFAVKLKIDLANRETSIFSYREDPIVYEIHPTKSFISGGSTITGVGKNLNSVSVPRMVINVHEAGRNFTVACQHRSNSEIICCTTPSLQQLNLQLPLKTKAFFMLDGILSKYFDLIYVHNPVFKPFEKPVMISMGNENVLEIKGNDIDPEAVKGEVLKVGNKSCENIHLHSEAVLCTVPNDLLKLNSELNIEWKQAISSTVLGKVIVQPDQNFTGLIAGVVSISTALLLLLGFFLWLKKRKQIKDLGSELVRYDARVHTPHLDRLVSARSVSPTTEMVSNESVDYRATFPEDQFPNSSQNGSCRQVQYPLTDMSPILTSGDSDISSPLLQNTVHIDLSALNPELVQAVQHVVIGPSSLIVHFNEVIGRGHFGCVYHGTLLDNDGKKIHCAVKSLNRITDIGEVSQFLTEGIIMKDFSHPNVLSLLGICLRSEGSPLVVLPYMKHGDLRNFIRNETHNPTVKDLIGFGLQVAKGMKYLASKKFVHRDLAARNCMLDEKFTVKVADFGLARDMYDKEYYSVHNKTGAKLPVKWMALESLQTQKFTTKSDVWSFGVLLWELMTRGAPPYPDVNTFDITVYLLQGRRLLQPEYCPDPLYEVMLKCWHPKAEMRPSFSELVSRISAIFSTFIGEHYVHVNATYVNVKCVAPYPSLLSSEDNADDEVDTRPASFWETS
Sequence of RON (human) (Q04912 25-1400): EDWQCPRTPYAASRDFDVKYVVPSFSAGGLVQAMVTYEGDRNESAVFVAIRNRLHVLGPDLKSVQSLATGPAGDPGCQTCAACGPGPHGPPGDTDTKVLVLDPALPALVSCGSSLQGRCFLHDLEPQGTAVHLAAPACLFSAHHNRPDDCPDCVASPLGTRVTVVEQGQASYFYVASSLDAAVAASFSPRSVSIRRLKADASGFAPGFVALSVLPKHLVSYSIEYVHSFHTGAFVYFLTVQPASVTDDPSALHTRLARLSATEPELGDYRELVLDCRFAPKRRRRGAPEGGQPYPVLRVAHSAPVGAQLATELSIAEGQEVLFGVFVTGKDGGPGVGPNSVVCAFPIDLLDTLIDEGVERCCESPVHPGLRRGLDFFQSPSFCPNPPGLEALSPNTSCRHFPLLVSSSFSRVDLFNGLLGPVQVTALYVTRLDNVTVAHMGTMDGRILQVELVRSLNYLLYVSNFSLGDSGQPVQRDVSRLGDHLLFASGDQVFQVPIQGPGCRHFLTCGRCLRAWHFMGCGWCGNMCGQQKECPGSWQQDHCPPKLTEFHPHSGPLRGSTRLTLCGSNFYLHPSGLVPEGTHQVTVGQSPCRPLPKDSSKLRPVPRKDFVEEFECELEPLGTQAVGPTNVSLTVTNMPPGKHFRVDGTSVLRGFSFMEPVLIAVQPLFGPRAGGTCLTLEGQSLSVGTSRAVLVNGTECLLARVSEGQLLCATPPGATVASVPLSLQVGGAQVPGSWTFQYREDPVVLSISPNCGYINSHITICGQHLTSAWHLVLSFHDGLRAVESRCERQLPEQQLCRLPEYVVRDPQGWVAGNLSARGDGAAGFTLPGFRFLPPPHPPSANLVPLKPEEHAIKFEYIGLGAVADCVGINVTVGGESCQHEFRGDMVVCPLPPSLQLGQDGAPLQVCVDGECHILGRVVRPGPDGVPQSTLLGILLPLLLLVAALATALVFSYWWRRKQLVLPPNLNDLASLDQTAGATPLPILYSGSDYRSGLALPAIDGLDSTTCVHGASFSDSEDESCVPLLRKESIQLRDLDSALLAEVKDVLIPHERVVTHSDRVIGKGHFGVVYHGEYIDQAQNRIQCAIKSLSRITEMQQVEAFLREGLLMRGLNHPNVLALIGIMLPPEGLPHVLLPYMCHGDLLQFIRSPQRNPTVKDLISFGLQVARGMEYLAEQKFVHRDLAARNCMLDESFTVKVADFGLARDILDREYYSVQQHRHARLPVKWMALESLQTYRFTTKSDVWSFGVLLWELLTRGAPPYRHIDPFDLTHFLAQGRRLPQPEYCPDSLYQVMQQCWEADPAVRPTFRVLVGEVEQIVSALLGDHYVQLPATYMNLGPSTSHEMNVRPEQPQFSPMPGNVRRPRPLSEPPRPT

Row | IC50 (RON (human)) [nM] | IC50 (MET (human)) [nM] | SMILES
1 | 500 to 5000 | 500 to 5000 | COc1cc(OC)cc(-c2coc3c(O[C@H](C)c4c(Cl)ccc(F)c4Cl)c(N)ncc23)c1 [Example 81, 7-[(R)-1-(2,6-Dichloro-3-fluorophenyl)ethoxy]-3-(3,5-dimethoxyphenyl)furo[3,2-c]pyridin-6-ylamine]
2 | < 500 | < 500 | Cn1c(Cc2ccccc2)ncc(-c2ccc(COc3c(N)ncc4c(-c5cnn(C6CCNCC6)c5)coc34)cc2)c1=O [Example 462, 5-{4-[6-Amino-3-(1-piperidin-4-yl-1H-pyrazol-4-yl)-furo[3,2-c]pyridin-7-yloxymethyl]-phenyl}-2-benzyl-3-methyl-3H-pyrimidin-4-one]
3 | 500 to 5000 | < 500 | C[C@@H](Oc1c(N)ncc2c(-c3cnn(C4CCNCC4)c3)coc12)c1nnc2ccc(-c3ccccc3)nn12 [Example 476, 7-[(1R)-1-(6-phenyl[1,2,4]triazolo[4,3-b]pyridazin-3-yl)ethoxy]-3-[1-(piperidin-4-yl)-1H-pyrazol-4-yl]furo[3,2-c]pyridin-6-amine]
4 | 500 to 5000 | 500 to 5000 | CC(Oc1c(N)ncc2c(-c3cnn(C4CCNCC4)c3)coc12)c1ccccc1C(F)(F)F (centres unmarked) [Example 346, 3-(1-Piperidin-4-yl-1H-pyrazol-4-yl)-7-[1-(2-trifluoromethyl-phenyl)ethoxy]furo[3,2-c]pyridin-6-ylamine]
